Test results from a compilation of properties of binary mixtures (doi:10.1007/s10973-014-3978-x).

Assay: xn = mol fraction of the nth substance listed
Details: 101 kPa

CC[n+]1ccn(C)c1.F[B-](F)(F)F + O=C1CCCCC1
speed of sound [m/s]
Details	293.15 K	298.15 K	303.15 K	308.15 K
x2 = 0.0789	1623.5	1613.7	1602.6	–
x2 = 0.1407	1616.1	1607.6	1595.3	1581
x2 = 0.1861	1609.9	–	1587.8	1573.9
x2 = 0.2271	1603	1593.7	1580.5	1565.6
x2 = 0.2765	–	–	1570.4	–
x2 = 0.3069	1588.5	–	1563.6	–
x2 = 0.3898	1571.3	1560.2	1543.8	1527.9
x2 = 0.4269	1562.9	–	1534.4	1518.2
x2 = 0.489	1548.9	–	1518.4	1501.3
x2 = 0.5007	1545.9	1532.4	1515	1498.2
x2 = 0.5432	1535.6	–	1503.3	1486.5
x2 = 0.6302	1514.1	1499.3	1480.2	1462.4
x2 = 0.6848	–	1484.9	1465.9	1447.8
x2 = 0.7559	1483.3	1467.5	–	1428.7
x2 = 0.779	1477.4	1461.4	1441.7	1423.1
x2 = 0.8235	1467.2	1450.9	1431.5	1412.3
x2 = 0.8675	1457	1440.8	–	–
x2 = 0.9001	1450.6	1433.9	1414.6	1395

O=C1CCCC1 + CC[n+]1ccn(C)c1.F[B-](F)(F)F
speed of sound [m/s]
Details	293.15 K	298.15 K	303.15 K	308.15 K
x1 = 0.0877	1643.2	1628.4	1615.4	–
x1 = 0.1164	1644.4	1629.3	1615.2	1599.6
x1 = 0.1767	1642	1625.9	1611.6	1595.8
x1 = 0.2302	1633.9	1619.2	–	1588.2
x1 = 0.2879	1622.5	1606.5	–	1576.9
x1 = 0.3434	–	1592.4	1577.1	1562.1
x1 = 0.3887	1593.6	1578.2	–	1548
x1 = 0.478	1562.8	–	1530.1	–
x1 = 0.5114	–	1533.8	1517.1	1502.2
x1 = 0.5878	1522.6	1504.6	1486.7	1470.6
x1 = 0.6115	1513.9	1495.8	1477.3	1460.7
x1 = 0.6411	1503.2	1485	1465.7	1448.7
x1 = 0.6834	–	1469.2	1449.6	1431.7
x1 = 0.7649	1462.6	1441.6	1421.2	1402.3
x1 = 0.7867	1456.3	1435.4	1414.3	1394.6
x1 = 0.8157	–	1427	1405.9	1385.8
x1 = 0.8755	–	1412.3	–	1370.4
x1 = 0.9061	1427.6	1406	1384.4	1363.9
